Experimental findings from patent publication US11541067B2, “HMO compositions and methods for reducing detrimental proteolytic metabolites” (Glycom A/S, priority 2017, dated 2023) are described below.

The test system of this experiment is microbial metabolites. Nature of the experiment: M-SHIME (M-TripleSHIME) in vitro gastrointestinal model: bacterial metabolite analysis. It is filed as cell-based, human. The note with it: proximal (PC) and distal (DC) colon reactor; FIG. 1 in mg/l, means of three weekly samples. From the text:
The impact of the HMOs on microbiota and bacterial metabolites was investigated in the M-SHIME® (M-TripleSHlME®) in vitro gastrointestinal model (Prodigest). The typical reactor setup of the M-TripleSHIME® consisted of a succession of four reactors simulating the different parts of the human gastrointestinal tract. The first two reactors were of the fill-and-draw principle to simulate different steps in food uptake and digestion, with peristaltic pumps adding a defined amount of SHIME feed (140 mL 3×/day) and pancreatic and bile liquid (60 ml 3×/day), respectively, to the stomach and small intestine compartment and emptying the respective reactors after specified intervals. The last two compartments were continuously stirred reactors with constant volume and pH control. […]
The M-TripleSHIME® was run in four stages: • 1. […] The baseline microbial community composition and activity in the different reactors was determined by analysis of samples and was used as a reference. • 3. […]
Sample of the liquids in each reactor were collected regularly (three times in a week, on day 1, day 3 and day 5) and were analysed for microbial metabolites and the composition of the resident microbial community. In particular, the bifidobacteria composition was analysed using ITS profiling.

Turning to `CC(=O)N[C@H]1[C@H](O[C@H]2[C@@H](O)[C@@H](CO)O[C@@H](O[C@H]3[C@H](O)[C@@H](O)C(O)O[C@@H]3CO)[C@@H]2O)O[C@H](CO)[C@@H](O[C@@H]2O[C@H](CO)[C@H](O)[C@H](O)[C@H]2O)[C@@H]1O` (mixture of isomers) [LNnT, lacto-N-neotetraose], the “ammonia production compared with the effect of 2′-FL (FIG. 1)” value is recorded as “similar” and the “branched SOFA production compared with the effect of 2′-FL (FIG. 1)” value is “similar”.
